The values below come from patent US20240173432A1, “Compositions and Methods for Treatment of Myotonic Dystrophy Type 1 with CRISPR/SluCas9” (Vertex Pharmaceuticals Incorporated, priority 2021, published 2024).

Data set [1] concerns CTG repeat in the 3′ UTR of human DMPK gene. Kind of data set: Dual-cut screening: CTG repeat excision efficiency by loss-of-signal ddPCR. The data set is classed as cell-based. The following applies: sgRNA pair, primary DM1 patient myoblasts; for Excision efficiency (by ddPCR): 3 μM DNA-PKi Compound 6 for 48 hours; for Excision efficiency by ddPCR (Vehicle): vehicle (DMSO). The procedure: (§1) RNPs were assembled with recombinant SluCas9 protein and chemically modified sgRNAs at a ratio of 1:3 (protein:sgRNA). For SINGLE-cut screening, RNP complexes were assembled with 30 pmol of SluCas9 and 90 pmol of sgRNA in P5 Primary Cell Nucleofector Solution (Lonza). After incubation at room temperature for 20 minutes, 10 μL of RNP complex were mixed with two hundred thousand of primary myoblasts resuspended in 10 μL of P5 Nucleofector Solution. For DOUBLE-cut screening, RNP complexes were first assembled for individual sgRNAs with 20 pmol of SluCas9 protein and 60 pmol of sgRNAs in 5 μL of P5 Nucleofector Solution. After incubation at room temperature for 20 minutes, the two RNP complexes (one for upstream sgRNA and one for downstream sgRNA) were mixed at 1:1 ratio and then further mixed with two hundred thousand of primary myoblasts resuspended in 10 μL of P5 Nucleofector Solution.
(§2) The Nucleofector 96-well Shuttle System (Lonza) was used to deliver the SluCa9/sgRNA RNPs into primary DM1 patient myoblasts using the nucleofection program CM138. Following nucleofection, myoblasts from each well of nucleofection shuttle were split into six wells of the 96-well cell culture plate (Greiner, 655090) coated with matrigel. The first three wells were treated with DMSO for 48 hrs before changing to fresh myoblast growth medium, and the other three wells were treated with 3 μM of DNA-PKi Compound 6 for 48 hrs before changing to fresh myoblast growth medium. 72 hrs post nucleofection, two wells of DMSO-treated myoblasts and two wells of DNA-PKi-treated myoblasts from each nucleofection were harvested for genomic DNA extraction using the Kingfisher Flex purification system (Thermal Fisher), whereas one well of DMSO-treated myoblasts and one well of DNA-PKi-treated myoblasts were stained for RNA foci by FISH staining.
The primers and probes of ddPCR are designed using the online primer design software Primer3Plus (http://www.bioinformatics.nl/cgi-bin/primer3plus/primer3plus.cgi). In some embodiments, two target primers/probe sets were used to detect CTG repeat excision, and a reference primers/probe set were used to amplify a region located in Exon 1 of human DMPK gene and to serve as a reference control for the target sets. The 24 μL of ddPCR reaction consists of 12 μL of Supermix for Probes (no dUTP) (Bio-Rad Laboratories), 1 μL of Reference primers mix (21.6 μM), 1 μL of Reference probe (6 μM), 1 μL of Target primers mix (21.6 μM), 1 μL of Target probe (6 μM), and 8 μL of sample genomic DNA. Droplets were generated using probe oil with the QX200 Droplet Generator (Bio-Rad Laboratories). Droplets were transferred to a 96-well PCR plate, sealed and cycled in a C1000 deep well Thermocycler (Bio-Rad Laboratories) under the following cycling protocol: 1 cycle at 95° C. for 10 min; 40 cycles of 94° C. for 30 see, and 58° C. for 1 min; 1 cycle at 98° C. for 10 min (for enzyme inactivation). The cycled plate was then transferred and read in the FAM and HEX channels using the Bio-Rad QX200 Droplet Reader (Bio-Rad Laboratories). ddPCR analysis is performed with the Bio-Rad QuantaSoft Pro Software.
To assess the efficiency of SluCas9 sgRNA pairs for inducing CTG repeat excision, Dual-cut screening was performed in which individual SluCas9 sgRNAs and recombinant SluCas9 protein were assembled into ribonucleoprotein (RNP) and delivered into primary DM1 patient myoblasts. Nucleofected myoblasts were treated with either DMSO (vehicle) or 3 μM of DNA-dependent Protein Kinase Inhibitor (DNA-PKi) Compound 6 for 48 hours. 72 hours post-nucleofection, myoblasts were subjected to either genomic DNA isolation or RNA foci staining by fluorescence in situ hybridization (FISH).
CRISPR repeat excision efficiency was assessed for each of the 88 pairs (FIG. 8A-B and Table 5). CTG repeat excision efficiency percentages are shown for vehicle (DMSO; white bars) and with DNA-PKi (black bars) (FIG. 8B and Table 5).

Data set [2] deals with CUG foci in primary DM1 patient myoblasts. In words: Dual-cut screening: FISH staining of CUG RNA foci. The data set is classed as cell-based, human. The following applies: sgRNA pair, primary DM1 patient myoblasts; for % of CUG foci free nuclei (DNA-PKi): 3 μM DNA-PKi Compound 6 for 48 hours; for % of CUG foci free nuclei (Vehicle): vehicle (DMSO). The procedure: as §1, §2
Primary myoblasts were fixed for 15 min with 4% paraformaldehyde (PFA) and washed five times with 1×PBS for 10 min each at room temperature. Before staining, cells were permeabilized with 0.5% triton X-100 in 1×PBS for 5 min at room temperature, and then washed with 30% formamide and 2× saline-sodium citrate (SSC) mixture for 10 min at room temperature. Cells were then stained with 1 ng/μL of Cy3-PNA(CAG)5 probe (PNA Bio, F5001) diluted in 30% formamide, 2×SSC, 2 μg/mL BSA, 66 μg/mL yeast tRNA, and 2 mM vanadyl complex for 15 min at 80° C. Following probe staining, cells were then washed in 30% formamide and 2×SSC mixture for 30 min at 42° C., then washed in 30% formamide and 2×SSC mixture for 30 min at 37° C., and then washed in 1×SSC solution for 10 min at room temperature, and finally washed in 1×PBS for 10 min at room temperature. Cells were next stained with anti-MBNL1 antibody (Santa Cruz, 3A4) diluted in 1% bovine serum albumin (BSA) for overnight at 4° C., and washed twice with 1×PBS for 10 min each at room temperature. Cells were then incubated with the secondary antibody goat anti-rabbit Alexa 647 (Thermo Fisher, A32728) diluted in 1% BSA for 1 hr at room temperature, and washed twice with 1×PBS for 10 min each at room temperature. Next, cells were stained with Hoechst solution (Thermo Fisher, H3569) at 0.1 mg/ml for 5 min, and washed once with 1×PBS for 5 min. PBS was aspirated and fresh 100 μl of fresh PBS is added to each well. High-throughput acquisition of images was completed with the ImageXpress Micro Confocal High-Content Imaging System (Molecular Devices). RNA foci quantifications were accomplished with a customized analysis module of the MetaXpress program (Molecular Devices).
To assess the efficiency of SluCas9 sgRNA pairs for inducing CTG repeat excision, Dual-cut screening was performed in which individual SluCas9 sgRNAs and recombinant SluCas9 protein were assembled into ribonucleoprotein (RNP) and delivered into primary DM1 patient myoblasts. Nucleofected myoblasts were treated with either DMSO (vehicle) or 3 μM of DNA-dependent Protein Kinase Inhibitor (DNA-PKi) Compound 6 for 48 hours. […]

For “SluU08 + SluD14 (guide 1 GCCCCGTTGGAAGACTGAGTGC; guide 2 ATGGGCAAACTGCAGGCCTGGG; guide RNA; listed as DNA, chemistry not fully specified)”, in data set [1], the “Excision efficiency (by ddPCR)” value is listed as 63.05 and the “Excision efficiency by ddPCR (Vehicle)” value is given as 45.12. In data set [2], the “% of CUG foci free nuclei (DNA-PKi)” value stood at 82.09% and the “% of CUG foci free nuclei (Vehicle)” value came to 56.37%.
For the substance “SluU64 + SluD73 (guide 1 GGGCTCGAAGGGTCCTTGTAGC; guide 2 CCAAAACGTGGATTGGGGTTGT; guide RNA; listed as DNA, chemistry not fully specified)”, in data set [1], the “Excision efficiency (by ddPCR)” value came to 74.77 and the “Excision efficiency by ddPCR (Vehicle)” value was 50.69. Also, in data set [2], the “% of CUG foci free nuclei (DNA-PKi)” value is 91.02% and the “% of CUG foci free nuclei (Vehicle)” value amounted to 70.19%.
The matching figures for “SluU21 + SluD06 (guide 1 GCTCGGAGCGGTTGTGAACTGG; guide 2 CCAGGCTGAGGCCCTGACGTGG; guide RNA; listed as DNA, chemistry not fully specified)”: 66.01, 46.6, 88.47% and 48.27%.
In the case of “SluU21 + SluD100 (guide 1 GCTCGGAGCGGTTGTGAACTGG; guide 2 GTCCAGAGCTTTGGGCAGATGG; guide RNA; listed as DNA, chemistry not fully specified)”, in data set [1], the “Excision efficiency (by ddPCR)” value is given as 63.99 and the “Excision efficiency by ddPCR (Vehicle)” value is reported as 36.68. Also, in data set [2], the “% of CUG foci free nuclei (DNA-PKi)” value is 87.7% and the “% of CUG foci free nuclei (Vehicle)” value came out at 48.33%.
For the substance “SluU06 + SluD100 (guide 1 TGTCTTCGACTCCGGGGCCCCG; guide 2 GTCCAGAGCTTTGGGCAGATGG; guide RNA; listed as DNA, chemistry not fully specified)”, in data set [1], the “Excision efficiency (by ddPCR)” value came out at 65.68 and the “Excision efficiency by ddPCR (Vehicle)” value came to 40.89. Also, in data set [2], the “% of CUG foci free nuclei (DNA-PKi)” value was determined as 87.37% and the “% of CUG foci free nuclei (Vehicle)” value worked out at 64.95%.
With “SluU10 + SluD100 (guide 1 CCCGTTGGAAGACTGAGTGCCC; guide 2 GTCCAGAGCTTTGGGCAGATGG; guide RNA; listed as DNA, chemistry not fully specified)”, in data set [1], the “Excision efficiency (by ddPCR)” value is reported as 64.25 and the “Excision efficiency by ddPCR (Vehicle)” value is on record as 44.65. In addition, in data set [2], the “% of CUG foci free nuclei (DNA-PKi)” value was 88.24% and the “% of CUG foci free nuclei (Vehicle)” value turned out to be 67.81%.
As for “SluU63 + SluD68 (guide 1 GGGGCTCGAAGGGTCCTTGTAG; guide 2 CCTGTAGCCTGTCAGCGAGTCG; guide RNA; listed as DNA, chemistry not fully specified)”, in data set [1], the “Excision efficiency (by ddPCR)” value is listed as 93.64 and the “Excision efficiency by ddPCR (Vehicle)” value came out at 57.23. Moreover, in data set [2], the “% of CUG foci free nuclei (DNA-PKi)” value is 90.625% and the “% of CUG foci free nuclei (Vehicle)” value was 71.74%.
As for “SluU21 + SluD56 (guide 1 GCTCGGAGCGGTTGTGAACTGG; guide 2 CCAGCCGGCTCCGCCCGCTTCG; guide RNA; listed as DNA, chemistry not fully specified)”, in data set [1], the “Excision efficiency (by ddPCR)” value was determined as 59.97 and the “Excision efficiency by ddPCR (Vehicle)” value was 25.94. In addition, in data set [2], the “% of CUG foci free nuclei (DNA-PKi)” value was determined as 85.39% and the “% of CUG foci free nuclei (Vehicle)” value was 31.9%.
Take “SluU10 + SluD68 (guide 1 CCCGTTGGAAGACTGAGTGCCC; guide 2 CCTGTAGCCTGTCAGCGAGTCG; guide RNA; listed as DNA, chemistry not fully specified)”: in data set [1], the “Excision efficiency (by ddPCR)” value came to 61.29 and the “Excision efficiency by ddPCR (Vehicle)” value stood at 42.37. Besides, in data set [2], the “% of CUG foci free nuclei (DNA-PKi)” value is 89.5% and the “% of CUG foci free nuclei (Vehicle)” value was found to be 68.15%.
Take “SluU21 + SluD68 (guide 1 GCTCGGAGCGGTTGTGAACTGG; guide 2 CCTGTAGCCTGTCAGCGAGTCG; guide RNA; listed as DNA, chemistry not fully specified)”: in data set [1], the “Excision efficiency (by ddPCR)” value was determined as 58.7 and the “Excision efficiency by ddPCR (Vehicle)” value is on record as 35.67. Also, in data set [2], the “% of CUG foci free nuclei (DNA-PKi)” value stood at 87.57% and the “% of CUG foci free nuclei (Vehicle)” value was 51.5%.
Regarding “SluU08 + SluD48 (guide 1 GCCCCGTTGGAAGACTGAGTGC; guide 2 GAGAGCAGCGCAAGTGAGGAGG; guide RNA; listed as DNA, chemistry not fully specified)”, in data set [1], the “Excision efficiency (by ddPCR)” value came out at 55.92 and the “Excision efficiency by ddPCR (Vehicle)” value was found to be 42.14. Further, in data set [2], the “% of CUG foci free nuclei (DNA-PKi)” value came out at 87.63% and the “% of CUG foci free nuclei (Vehicle)” value was determined as 64.93%.
The matching figures for “SluU64 + SluD100 (guide 1 GGGCTCGAAGGGTCCTTGTAGC; guide 2 GTCCAGAGCTTTGGGCAGATGG; guide RNA; listed as DNA, chemistry not fully specified)”: 68.22, 45.16, 85.89% and 69.88%.
The like results for “SluU21 + SluD18 (guide 1 GCTCGGAGCGGTTGTGAACTGG; guide 2 TGGAGGATGGAACACGGACGGC; guide RNA; listed as DNA, chemistry not fully specified)” were, in that order, 65.52, 45.61, 89.21% and 54.26%.
Turning to “SluU64 + SluD56 (guide 1 GGGCTCGAAGGGTCCTTGTAGC; guide 2 CCAGCCGGCTCCGCCCGCTTCG; guide RNA; listed as DNA, chemistry not fully specified)”, in data set [1], the “Excision efficiency (by ddPCR)” value was 67.76 and the “Excision efficiency by ddPCR (Vehicle)” value is 42.14. In addition, in data set [2], the “% of CUG foci free nuclei (DNA-PKi)” value amounted to 87.6% and the “% of CUG foci free nuclei (Vehicle)” value was 60.36%.
